These results are taken from the NIST ThermoML archive (doi:10.1016/j.jct.2014.08.010).

The conditions of series [1]: DTA.
A short description of series [2]: Molar enthalpy of transition or fusion. To be noted: DSC.

Molecules are shown by their SMILES. ± gives the expanded uncertainty stated by the source.

For the compound `CCCCCCCc1ccc(-c2ccc(C#N)cc2)cc1` [4'-heptyl-4-biphenylcarbonitrile], the Triple point temperature is recorded as 305.15 ± 0.5 K in series [1] (Crystal) and 316.15 ± 0.5 K in series [1] (Nematic liquid crystal). For the same compound, the “Molar enthalpy of transition or fusion” value came out at 5.82 ± 0.172 kcal/mol in series [2] (Crystal) and 0.198 ± 0.0382 kcal/mol in series [2] (Nematic liquid crystal).
For `CCCCCc1ccc(-c2ccc(C#N)cc2)cc1` [4'-n-pentyl-4-biphenylcarbonitrile], in that order: 297.55 ± 0.5 K, 308.65 ± 0.5 K, 3.26 ± 0.108 kcal/mol and 0.117 ± 0.0359 kcal/mol.
